ChEMBL document CHEMBL4330055, “Development of Inhibitors of the Programmed Cell Death-1/Programmed Cell Death-Ligand 1 Signaling Pathway” (J Med Chem, 2019)
Where a SMILES comes first, the peptide text is derived from it. Bridges are numbered along the chain shown (N, C = ends).

Molecular target: Programmed cell death 1 ligand 1 (Mus musculus) (UniProt Q9EP73)
Assay: Inhibition of PDL1 in C57BL6 mouse splenocytes assessed as protection against ant-CD3/CD28-stimulated cell proliferation at 100 nM after 4 hrs by CFSE-based FACS analysis relative to control

Sequence of Programmed cell death 1 ligand 1 (Mus musculus) (Q9EP73 whole entry): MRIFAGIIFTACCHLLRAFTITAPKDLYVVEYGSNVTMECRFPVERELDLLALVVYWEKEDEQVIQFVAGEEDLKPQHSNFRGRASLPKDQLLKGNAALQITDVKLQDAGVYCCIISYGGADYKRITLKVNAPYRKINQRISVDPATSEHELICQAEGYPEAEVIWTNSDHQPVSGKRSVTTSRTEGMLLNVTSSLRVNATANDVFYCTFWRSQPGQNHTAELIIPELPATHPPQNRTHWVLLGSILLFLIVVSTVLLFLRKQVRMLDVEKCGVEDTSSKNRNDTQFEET

Molecule	inhibition [%]
C[C@@H](O)[C@@H](NC(=O)N[C@@H](CC(N)=O)c1nc([C@@H](N)CO)no1)C(=O)O	97
C[C@@H](O)[C@@H]1NC(=O)COCCOCCNC(=O)[C@@H](CO)NC(=O)N[C@H](C(N)=O)C(=O)NNC1=O	94
C[C@@H](O)[C@@H]1NC(=O)N[C@@H](C(N)=O)C(=O)NNC(=O)[C@@H](CO)NC(=O)COCCOCCNC1=O	95
COCCNC(=O)CC[C@H](NS(=O)(=O)C1CC1)c1nnc(-c2ccccc2OC)o1	97
C[C@@H](O)[C@@H]1C(=O)N[C@H](CO)C(=O)N[C@H](C(=O)N[C@@H](CO)C(=O)N[C@@H](Cc2ccccc2)C(N)=O)CCCCNC(=O)CC[C@H](NC(=O)[C@@H](N)CO)C(=O)N1C	82
C[C@@H](O)[C@H](N)c1noc([C@H](Cc2ccc(O)cc2)NC(=O)N2CCC[C@H]2C(=O)O)n1	99
NCCCC[C@H](NC(=O)N[C@@H](CC(N)=O)C(=O)NNC(=O)[C@@H](N)CO)C(=O)O	87
NC(=O)C[C@H](NC(=O)[C@@H]1C[C@H](O)CN1)c1nc(N2CCCC2)no1	91
C[C@@H](O)[C@H](N)c1nnc([C@H](CCC(N)=O)NC(=O)N[C@@H](CO)C(=O)O)o1	92
C[C@@H](O)C(NC(=O)[C@H](CCC(=O)O)NC(=O)[C@@H](N)CO)C(=O)N[C@H](CO)C(=O)N[C@H](CCCCN)C(=O)N[C@H](CO)CN[C@H](Cc1ccccc1)C(N)=O (single isomer, unassigned)	81

Molecular target: T1, Programmed cell death 1 ligand 1 (Homo sapiens, UniProt Q9NZQ7)
Assay: Binding affinity to Fc-labeled human PDL1 expressed in Escherichia coli by SPR spectroscopy

T1 sequence (Q9NZQ7 whole entry): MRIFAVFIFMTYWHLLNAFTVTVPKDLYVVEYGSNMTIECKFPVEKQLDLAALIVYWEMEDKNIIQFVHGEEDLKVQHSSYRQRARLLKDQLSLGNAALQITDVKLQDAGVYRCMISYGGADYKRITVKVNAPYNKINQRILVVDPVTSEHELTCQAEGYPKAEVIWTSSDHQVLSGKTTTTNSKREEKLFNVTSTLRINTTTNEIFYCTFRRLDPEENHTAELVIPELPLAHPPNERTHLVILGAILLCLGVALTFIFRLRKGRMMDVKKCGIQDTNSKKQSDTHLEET

Molecule	Kd [nM]
H-KHAHHTHNLRLP-OH	1130
H-MRNRERYPKPYY-OH	22000
C[C@@H](O)[C@H](NC(=O)[C@@H]1CCCN1C(=O)[C@H](CCCCN)NC(=O)[C@H](CO)NC(=O)[C@H](Cc1ccc(O)cc1)NC(=O)[C@@H](N)CC(N)=O)C(=O)N[C@@H](CC(=O)O)C(=O)N[C@@H](CCCNC(=N)N)C(=O)N[C@@H](CCC(N)=O)C(=O)N[C@@H](Cc1ccc(O)cc1)C(=O)N[C@@H](Cc1cnc[nH]1)C(=O)N[C@@H](Cc1ccccc1)C(=O)O	510

Molecular target: T1, Programmed cell death 1 ligand 1
Assay: Binding affinity to biotinylated PDL1 (unknown origin) expressed in Escherichia coli OmpX membrane after 45 mins by SAPE-fluorescence based flow cytometry
Type: cell membranes

Molecule	Kd [nM]
C[C@H](NC(=O)[C@H](Cc1ccc(O)cc1)NC(=O)[C@H](CCC(N)=O)NC(=O)CNC(=O)[C@@H](N)CO)C(=O)N[C@@H](CO)C(=O)N[C@@H](Cc1ccc(O)cc1)C(=O)N[C@@H](Cc1cnc[nH]1)C(=O)N[C@@H](CS)C(=O)N[C@@H](Cc1c[nH]c2ccccc12)C(=O)N[C@@H](CS)C(=O)N[C@@H](Cc1c[nH]c2ccccc12)C(=O)N[C@@H](CCCNC(=N)N)C(=O)N[C@@H](CC(=O)O)C(=O)N1CCC[C@H]1C(=O)NCC(=O)N[C@@H](CCCNC(=N)N)C(=O)N[C@@H](CO)C(=O)NCC(=O)NCC(=O)N[C@@H](CO)C(=O)N[C@@H](CCCCN)C(=O)O (H-SGQYASYHCWCWRDPGRSGGSK-OH)	94

Molecular target: T2, Programmed cell death protein 1/Programmed cell death 1 ligand 1 (Homo sapiens, UniProt Q15116+Q9NZQ7)
Assay: Inhibition of PD1/PDL1 interaction in human jurkat cells co-expressing TCR promoter assessed as TCR activation by luciferase reporter gene assay
Type: cell-based

T2 sequence (Q15116 whole entry): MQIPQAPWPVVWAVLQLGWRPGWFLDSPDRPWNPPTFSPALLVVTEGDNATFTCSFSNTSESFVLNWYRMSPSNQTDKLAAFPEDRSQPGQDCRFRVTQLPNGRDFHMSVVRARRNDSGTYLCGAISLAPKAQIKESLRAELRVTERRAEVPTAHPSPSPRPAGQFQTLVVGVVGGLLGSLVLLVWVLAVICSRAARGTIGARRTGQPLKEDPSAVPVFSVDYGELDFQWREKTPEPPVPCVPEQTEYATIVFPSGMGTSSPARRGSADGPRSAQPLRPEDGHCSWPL
T2 sequence (Q9NZQ7 whole entry): as the sequence (Q9NZQ7 whole entry) above

Molecule	EC50 [nM]
CC[C@H](C)[C@@H]1NC(=O)[C@H](CC(C)C)NC(=O)[C@H](Cc2ccccc2)NC(=O)CSC[C@@H](C(=O)NCC(N)=O)NC(=O)[C@H](CCCNC(=N)N)NC(=O)[C@H](Cc2ccccc2)NC(=O)[C@H](C(C)C)NC(=O)[C@H](CCCNC(=N)N)NC(=O)[C@H](CC(=O)O)NC(=O)[C@H](CCCNC(=N)N)NC(=O)[C@H]([C@@H](C)CC)NC(=O)[C@H](C(C)C)NC1=O ({CH2CO}-FLIVIRDRVFRCG-NH2; thioether N-12)	6300

Molecular target: T2, Programmed cell death protein 1/Programmed cell death 1 ligand 1
Assay: Inhibition of PD1/PDL1 (unknown origin) interaction at 10 uM after 15 mins by HTRF assay relative to control
Type: protein-complex assay

Molecule	inhibition [%]
COc1ccc(Nc2cc(C(=O)Nc3ccc(Oc4ccccc4)cc3)ccn2)cc1	36

Molecular target: T2, Programmed cell death protein 1/Programmed cell death 1 ligand 1
Assay: Inhibition of PD1/PDL1 (unknown origin) at 500 uM after 15 mins by HTRF assay relative to control
Type: protein-complex assay

Molecule	inhibition [%]
CN(C)CCOc1ccc([N+](=O)[O-])c(OC(=O)N(C)C)c1	43

Molecular target: T3, V-type immunoglobulin domain-containing suppressor of T-cell activation (Homo sapiens) (UniProt Q9H7M9)
T3 sequence (whole entry): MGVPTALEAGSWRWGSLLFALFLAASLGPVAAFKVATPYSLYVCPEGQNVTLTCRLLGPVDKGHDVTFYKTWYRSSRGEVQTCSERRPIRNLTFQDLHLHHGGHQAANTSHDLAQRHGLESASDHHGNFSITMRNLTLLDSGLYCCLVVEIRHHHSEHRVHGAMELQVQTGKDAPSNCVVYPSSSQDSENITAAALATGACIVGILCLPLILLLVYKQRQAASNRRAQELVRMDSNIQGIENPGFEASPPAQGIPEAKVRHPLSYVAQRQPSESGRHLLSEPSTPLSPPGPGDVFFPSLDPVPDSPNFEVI
Assay: Inhibition of VISTA signaling in human PBMC assessed as IFNgamma release at 100 nM after 30 mins by ELISA

inhibition [%]	Molecule
> 70	C[C@@H](O)[C@@H](NC(=O)N[C@@H](CC(N)=O)c1nc([C@@H](N)CO)no1)C(=O)O
99	C[C@@H](O)[C@H](NC(=O)N[C@@H](CC(N)=O)c1nc([C@@H](N)Cc2ccccc2)no1)C(=O)O

Molecular target: T2, Programmed cell death protein 1/Programmed cell death 1 ligand 1
Assay: Inhibition of PD1/PDL1 (unknown origin) interaction by HTRF assay
Type: protein-complex assay

Molecule	IC50 [nM]
Cc1c(/C=C/c2ncc(CNC(CO)C(=O)O)cc2C(F)(F)F)cccc1-c1ccc2c(c1)OCCO2 (configuration not stated)	36

Molecular target: T2, Programmed cell death protein 1/Programmed cell death 1 ligand 1
Assay: Inhibition of recombinant human PD1 (25 to 167 residues)/human PDL1 (19 to 238 residues) interaction after 40 mins by HTRF assay
Type: protein-complex assay

Molecule	IC50 [nM]
N#Cc1c(NC(=O)c2nc3c(s2)CNCC3)cccc1-c1ccc2c(c1)OCC2	≤ 100
Cc1c(-c2ccccc2)cccc1-n1cc2c(n1)CNCC2	≤ 100
Cc1cc(C(=O)Nc2cccc(-c3ccccc3)c2C)ncc1CNCCO	≤ 100
COc1cc2oc(-c3cccc(-c4ccccc4)c3C)nc2cc1CNCCO	≤ 100
N#Cc1c(-c2ccc3c(c2)OCCO3)cccc1N1CCC(NC2CCCOC2)CC1 (configuration not stated)	≤ 100
N#Cc1c(Nc2nccc3cc(CNCCO)cnc23)cccc1C1=CCCCC1	≤ 100
Cc1c(-c2ccccc2)cccc1-c1cc2ccc(CNCCO)cn2n1	≤ 100
